In ChEMBL document CHEMBL1146065, “Structure-based optimization of azole antifungal agents by CoMFA, CoMSIA, and molecular docking” (2006):
In brackets after ≈: the same amount, converted by molar mass.

Key:
Cryptococcus neoformans = experiment: Antifungal activity against Cryptococcus neoformans; format: functional
Trichophyton rubrum = experiment: Antifungal activity against Trichophyton rubrum; format: functional
Nannizzia gypsea = experiment: Antifungal activity against Microsporum gypseum; format: functional
Microsporum = experiment: Antifungal activity against Microsporum lanosum; format: functional
Trichophyton benhamiae = experiment: Antifungal activity against Trichophyton mentagrophytes; format: functional, Arthroderma benhamiae
Fonsecaea pedrosoi = experiment: Antifungal activity against Fonsecaea pedrosoi; format: functional
Sporothrix schenckii = experiment: Antifungal activity against Sporothrix schenckii; format: functional
Trichophyton violaceum = experiment: Antifungal activity against Trichophyton violaceum; format: functional
Candida tropicalis = experiment: Antifungal activity against Candida tropicalis; format: functional
Aspergillus fumigatus = experiment: Antifungal activity against Aspergillus fumigatus; format: functional
Candida albicans = experiment: Antifungal activity against Candida albicans; format: functional
Epidermophyton floccosum = experiment: Antifungal activity against Epidermophyton floccosum; format: functional
Candida parapsilosis = experiment: Antifungal activity against Candida parapsilosis; format: functional; conditions: Lodderomyces parapsilosis

Work on `OC(Cn1cncn1)(Cn1cncn1)c1ccc(F)cc1F` [FLUCONAZOLE] yielded an MIC80 (Cryptococcus neoformans) of 16 µg/mL (≈ 52.2 µM), an MIC80 (Trichophyton rubrum) of 8 µg/mL (≈ 26.1 µM) and an MIC80 (Nannizzia gypsea) of 8 µg/mL (≈ 26.1 µM). The MIC80 (Microsporum) was over 32 µg/mL, the MIC80 (Trichophyton benhamiae) was over 32 µg/mL and the MIC80 (Fonsecaea pedrosoi) was 64 µg/mL (≈ 209 µM). It also gave an MIC80 (Sporothrix schenckii) of over 64 µg/mL, an MIC80 (Trichophyton violaceum) of 32 µg/mL (≈ 104 µM) and an MIC80 (Candida tropicalis) of 0.5 µg/mL (≈ 1.63 µM). For the same molecule, the MIC80 (Aspergillus fumigatus) was 32 µg/mL (≈ 104 µM), the MIC80 (Candida albicans) was 0.25 µg/mL (≈ 0.816 µM) and the MIC80 (Epidermophyton floccosum) was over 32 µg/mL. The MIC80 (Candida parapsilosis) was 0.5 µg/mL (≈ 1.63 µM).

Work on `CN(Cc1cccc(I)c1)CC(O)(Cn1cncn1)c1ccc(F)cc1F` (configuration not stated) yielded an MIC80 (Cryptococcus neoformans) of at most 0.125 µg/mL, an MIC80 (Trichophyton rubrum) of at most 0.125 µg/mL and an MIC80 (Nannizzia gypsea) of 0.125 µg/mL (≈ 0.258 µM). The MIC80 (Microsporum) was under 0.0625 µg/mL, the MIC80 (Trichophyton benhamiae) was under 0.0625 µg/mL and the MIC80 (Fonsecaea pedrosoi) was at most 0.125 µg/mL. For the same molecule, the MIC80 (Sporothrix schenckii) was 64 µg/mL (≈ 132 µM), the MIC80 (Trichophyton violaceum) was under 0.0625 µg/mL and the MIC80 (Candida tropicalis) was at most 0.125 µg/mL. The MIC80 (Aspergillus fumigatus) was 8 µg/mL (≈ 16.5 µM), the MIC80 (Candida albicans) was 1 µg/mL (≈ 2.06 µM) and the MIC80 (Epidermophyton floccosum) was under 0.0625 µg/mL. The MIC80 (Candida parapsilosis) was 1 µg/mL (≈ 2.06 µM).

`CN(C/C=C/C#CC(C)(C)C)Cc1cccc2ccccc12` [TERBINAFINE] gave an MIC80 (Cryptococcus neoformans) of 4 µg/mL (≈ 13.7 µM), an MIC80 (Trichophyton rubrum) of at most 0.125 µg/mL and an MIC80 (Nannizzia gypsea) of 0.5 µg/mL (≈ 1.72 µM). For the same molecule, the MIC80 (Microsporum) was 32 µg/mL (≈ 110 µM), the MIC80 (Trichophyton benhamiae) was over 32 µg/mL and the MIC80 (Fonsecaea pedrosoi) was at most 0.125 µg/mL. The MIC80 (Sporothrix schenckii) was 2 µg/mL (≈ 6.86 µM), the MIC80 (Trichophyton violaceum) was 4 µg/mL (≈ 13.7 µM) and the MIC80 (Candida tropicalis) was 16 µg/mL (≈ 54.9 µM). It also gave an MIC80 (Aspergillus fumigatus) of 0.25 µg/mL (≈ 0.858 µM), an MIC80 (Candida albicans) of 16 µg/mL (≈ 54.9 µM) and an MIC80 (Epidermophyton floccosum) of over 32 µg/mL. The MIC80 (Candida parapsilosis) was 16 µg/mL (≈ 54.9 µM).

Molecule `CN(Cc1ccccc1F)CC(O)(Cn1cncn1)c1ccc(F)cc1F` (configuration not stated) has an MIC80 (Cryptococcus neoformans) of 0.5 µg/mL (≈ 1.33 µM), an MIC80 (Trichophyton rubrum) of 32 µg/mL (≈ 85 µM) and an MIC80 (Nannizzia gypsea) of 8 µg/mL (≈ 21.3 µM). The MIC80 (Microsporum) was 0.5 µg/mL (≈ 1.33 µM), the MIC80 (Trichophyton benhamiae) was under 0.0625 µg/mL and the MIC80 (Fonsecaea pedrosoi) was 1 µg/mL (≈ 2.66 µM). For the same molecule, the MIC80 (Sporothrix schenckii) was 64 µg/mL (≈ 170 µM), the MIC80 (Trichophyton violaceum) was 2 µg/mL (≈ 5.31 µM) and the MIC80 (Candida tropicalis) was 0.25 µg/mL (≈ 0.664 µM). The MIC80 (Aspergillus fumigatus) was 8 µg/mL (≈ 21.3 µM), the MIC80 (Candida albicans) was 0.5 µg/mL (≈ 1.33 µM) and the MIC80 (Epidermophyton floccosum) was under 0.0625 µg/mL. It also gave an MIC80 (Candida parapsilosis) of at most 0.125 µg/mL.

In the case of `CN(Cc1ccc(I)cc1)CC(O)(Cn1cncn1)c1ccc(F)cc1F` (configuration not stated), the MIC80 (Cryptococcus neoformans) is reported as at most 0.125 µg/mL, the MIC80 (Trichophyton rubrum) is reported as at most 0.125 µg/mL and the MIC80 (Nannizzia gypsea) is reported as under 0.0625 µg/mL. The MIC80 (Microsporum) was under 0.0625 µg/mL, the MIC80 (Trichophyton benhamiae) was under 0.0625 µg/mL and the MIC80 (Fonsecaea pedrosoi) was at most 0.125 µg/mL. It also gave an MIC80 (Sporothrix schenckii) of 16 µg/mL (≈ 33 µM), an MIC80 (Trichophyton violaceum) of under 0.0625 µg/mL and an MIC80 (Candida tropicalis) of at most 0.125 µg/mL. For the same molecule, the MIC80 (Aspergillus fumigatus) was at most 0.125 µg/mL, the MIC80 (Candida albicans) was 0.032 µg/mL (≈ 0.0661 µM) and the MIC80 (Epidermophyton floccosum) was under 0.0625 µg/mL. It also gave an MIC80 (Candida parapsilosis) of 0.25 µg/mL (≈ 0.516 µM).

Molecule `CN(Cc1ccccc1Cl)CC(O)(Cn1cncn1)c1ccc(F)cc1F` (configuration not stated) has an MIC80 (Cryptococcus neoformans) of at most 0.125 µg/mL, an MIC80 (Trichophyton rubrum) of at most 0.125 µg/mL and an MIC80 (Nannizzia gypsea) of 4 µg/mL (≈ 10.2 µM). It also gave an MIC80 (Microsporum) of 0.25 µg/mL (≈ 0.636 µM), an MIC80 (Trichophyton benhamiae) of under 0.0625 µg/mL and an MIC80 (Fonsecaea pedrosoi) of 0.25 µg/mL (≈ 0.636 µM). The MIC80 (Sporothrix schenckii) was 32 µg/mL (≈ 81.5 µM), the MIC80 (Trichophyton violaceum) was 0.5 µg/mL (≈ 1.27 µM) and the MIC80 (Candida tropicalis) was at most 0.125 µg/mL. The MIC80 (Aspergillus fumigatus) was 8 µg/mL (≈ 20.4 µM), the MIC80 (Candida albicans) was 0.032 µg/mL (≈ 0.0815 µM) and the MIC80 (Epidermophyton floccosum) was under 0.0625 µg/mL. It also gave an MIC80 (Candida parapsilosis) of 0.25 µg/mL (≈ 0.636 µM).

In the case of `CN(Cc1ccc(F)cc1Br)CC(O)(Cn1cncn1)c1ccc(F)cc1F` (configuration not stated), the MIC80 (Cryptococcus neoformans) is reported as at most 0.125 µg/mL, the MIC80 (Trichophyton rubrum) is reported as 1 µg/mL (≈ 2.2 µM) and the MIC80 (Nannizzia gypsea) is reported as 32 µg/mL (≈ 70.3 µM). It also gave an MIC80 (Microsporum) of 4 µg/mL (≈ 8.79 µM), an MIC80 (Trichophyton benhamiae) of 0.125 µg/mL (≈ 0.275 µM) and an MIC80 (Fonsecaea pedrosoi) of 0.25 µg/mL (≈ 0.549 µM). The MIC80 (Sporothrix schenckii) was 64 µg/mL (≈ 141 µM), the MIC80 (Trichophyton violaceum) was 2 µg/mL (≈ 4.39 µM) and the MIC80 (Candida tropicalis) was at most 0.125 µg/mL. It also gave an MIC80 (Aspergillus fumigatus) of 4 µg/mL (≈ 8.79 µM), an MIC80 (Candida albicans) of 0.032 µg/mL (≈ 0.0703 µM) and an MIC80 (Epidermophyton floccosum) of under 0.0625 µg/mL. For the same molecule, the MIC80 (Candida parapsilosis) was 0.25 µg/mL (≈ 0.549 µM).

With `CC(=O)N1CCN(c2ccc(OCC3COC(Cn4ccnc4)(c4ccc(Cl)cc4Cl)O3)cc2)CC1` (configuration not stated) [KETOCONAZOLE] the MIC80 (Cryptococcus neoformans) was at most 0.125 µg/mL, the MIC80 (Trichophyton rubrum) was at most 0.125 µg/mL and the MIC80 (Nannizzia gypsea) was under 0.0625 µg/mL. The MIC80 (Microsporum) was under 0.0625 µg/mL, the MIC80 (Trichophyton benhamiae) was under 0.0625 µg/mL and the MIC80 (Fonsecaea pedrosoi) was at most 0.125 µg/mL. The MIC80 (Sporothrix schenckii) was 0.5 µg/mL (≈ 0.941 µM), the MIC80 (Trichophyton violaceum) was 0.25 µg/mL (≈ 0.47 µM) and the MIC80 (Candida tropicalis) was at most 0.125 µg/mL. It also gave an MIC80 (Aspergillus fumigatus) of 1 µg/mL (≈ 1.88 µM), an MIC80 (Candida albicans) of 0.0625 µg/mL (≈ 0.118 µM) and an MIC80 (Epidermophyton floccosum) of under 0.0625 µg/mL. For the same molecule, the MIC80 (Candida parapsilosis) was at most 0.125 µg/mL.

Work on `CN(Cc1cc(F)ccc1Br)CC(O)(Cn1cncn1)c1ccc(F)cc1F` (configuration not stated) yielded an MIC80 (Cryptococcus neoformans) of at most 0.125 µg/mL, an MIC80 (Trichophyton rubrum) of 0.5 µg/mL (≈ 1.1 µM) and an MIC80 (Nannizzia gypsea) of 32 µg/mL (≈ 70.3 µM). The MIC80 (Microsporum) was 8 µg/mL (≈ 17.6 µM), the MIC80 (Trichophyton benhamiae) was 0.5 µg/mL (≈ 1.1 µM) and the MIC80 (Fonsecaea pedrosoi) was 2 µg/mL (≈ 4.39 µM). For the same molecule, the MIC80 (Sporothrix schenckii) was 64 µg/mL (≈ 141 µM), the MIC80 (Trichophyton violaceum) was 4 µg/mL (≈ 8.79 µM) and the MIC80 (Candida tropicalis) was at most 0.125 µg/mL. For the same molecule, the MIC80 (Aspergillus fumigatus) was 4 µg/mL (≈ 8.79 µM), the MIC80 (Candida albicans) was 0.032 µg/mL (≈ 0.0703 µM) and the MIC80 (Epidermophyton floccosum) was under 0.0625 µg/mL. For the same molecule, the MIC80 (Candida parapsilosis) was at most 0.125 µg/mL.
